{"source": "paper PMC11602115", "about": "(Journal of Medicinal Chemistry, 2017)", "key": {"EP1": {"target": "T1, EP1 (Homo sapiens, UniProt P34995)", "T1 sequence (P34995 1-402)": "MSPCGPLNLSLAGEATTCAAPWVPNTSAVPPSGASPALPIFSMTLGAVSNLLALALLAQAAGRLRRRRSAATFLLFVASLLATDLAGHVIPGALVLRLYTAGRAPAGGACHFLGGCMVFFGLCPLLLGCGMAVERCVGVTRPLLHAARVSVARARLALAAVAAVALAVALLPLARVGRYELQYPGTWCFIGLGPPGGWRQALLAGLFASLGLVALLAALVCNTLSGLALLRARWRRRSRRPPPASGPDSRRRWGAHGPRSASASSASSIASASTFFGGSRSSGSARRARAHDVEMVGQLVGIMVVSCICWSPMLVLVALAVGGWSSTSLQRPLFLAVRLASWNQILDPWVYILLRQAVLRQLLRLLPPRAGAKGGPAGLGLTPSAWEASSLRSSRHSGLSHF", "experiment": "Radioligand binding, EP1 ([3H]-PGE2)", "parameters": "purchased MDS Pharma (Taiwan) and CEREP (France), contract assays", "conditions": "cloned human receptor; mean of two determinations", "experimental": "(§1) Additional (non-IP) receptor binding assays were carried out by MDS Pharma (Taiwan) and CEREP (France)."}, "Dog PK (iv and oral)": {"experiment": "Dog PK (iv and oral)", "assay_type": "in vivo, Beagle dogs"}, "[1]": {"experiment": "iv PK in bile-duct cannulated (BDC) versus normal rats", "assay_type": "in vivo, rat", "conditions": "iv administration", "excerpt": "One explanation for the prolonged exposure was the possibility of enterohepatic recirculation. […] A more definitive study was therefore conducted in bile-duct cannulated (BDC) rats."}, "Monkey PK (iv and oral)": {"experiment": "Monkey PK (iv and oral)", "assay_type": "in vivo, cynomolgus monkeys"}, "EP4": {"target": "EP4 (Homo sapiens, UniProt P35408)", "sequence (P35408 whole entry)": "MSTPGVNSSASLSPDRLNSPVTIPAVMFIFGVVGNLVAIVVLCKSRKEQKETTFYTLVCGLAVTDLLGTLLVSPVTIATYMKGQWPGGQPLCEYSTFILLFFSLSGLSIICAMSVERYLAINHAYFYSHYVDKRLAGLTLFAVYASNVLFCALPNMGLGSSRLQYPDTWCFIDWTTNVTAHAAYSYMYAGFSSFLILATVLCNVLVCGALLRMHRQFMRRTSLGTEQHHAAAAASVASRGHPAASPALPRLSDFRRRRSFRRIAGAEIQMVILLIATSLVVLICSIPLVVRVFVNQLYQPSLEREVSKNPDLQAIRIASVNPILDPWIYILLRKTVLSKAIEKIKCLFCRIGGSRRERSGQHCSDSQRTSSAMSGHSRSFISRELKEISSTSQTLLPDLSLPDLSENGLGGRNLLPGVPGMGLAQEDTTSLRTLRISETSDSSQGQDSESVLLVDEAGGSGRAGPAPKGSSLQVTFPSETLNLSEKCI", "experiment": "Radioligand binding, EP4 ([3H]-PGE2)", "parameters": "purchased MDS Pharma (Taiwan) and CEREP (France), contract assays", "conditions": "cloned human receptor; mean of two determinations", "experimental": "as §1"}, "human platelet": {"system": "human platelet", "experiment": "Inhibition of ADP-induced human platelet aggregation", "assay_type": "cell-based", "conditions": "aggregation induced by 2.5 μM ADP, mean of at least two determinations", "experimental": "Such aggregated and activated platelets produce vasoactive substances such as thromboxane and serotonin that may cause harmful vasoconstriction and vascular remodeling.[13] […] This secondary assay was carried out as previously described,[14] with aggregation induced by 2.5 μM ADP in the presence or absence of IP receptor agonists."}, "IP": {"target": "IP (Homo sapiens, UniProt P43119)", "sequence (P43119 whole entry)": "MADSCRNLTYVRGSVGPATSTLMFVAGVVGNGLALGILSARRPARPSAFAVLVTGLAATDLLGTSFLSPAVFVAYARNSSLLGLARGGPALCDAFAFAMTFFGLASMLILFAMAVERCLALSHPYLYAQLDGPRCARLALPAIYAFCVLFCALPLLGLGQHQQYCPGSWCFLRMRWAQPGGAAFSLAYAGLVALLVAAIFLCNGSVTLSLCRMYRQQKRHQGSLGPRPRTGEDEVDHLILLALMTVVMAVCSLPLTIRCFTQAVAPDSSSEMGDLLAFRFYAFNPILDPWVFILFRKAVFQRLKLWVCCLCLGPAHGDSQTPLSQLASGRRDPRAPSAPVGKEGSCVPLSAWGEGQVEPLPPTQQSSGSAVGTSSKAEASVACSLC", "experiment": "Radioligand binding, human IP ([3H]-iloprost)", "parameters": "expressed in transfected cells; host or cells: CHO-K1 (crude membranes)", "conditions": "cloned human receptor; read-out: Ki IP ([3H]-iloprost)", "experimental": "CHO-K1 cells expressing recombinant IP receptors were harvested, washed with ice-cold phosphate buffered saline, pH 7.4 (PBS), and then centrifuged at 48 000g for 20 min at 4 °C. The resulting cell pellet was then resuspended in ice-cold PBS containing 20 mM HEPES, pH 7.4, and 0.1 mM EDTA, homogenized on ice using a Brinkman Polytron, and centrifuged (48 000g for 20 min at 4 °C). This resuspension and centrifugation process was repeated one further time. Crude membrane pellets were stored at −80 °C until used for radioligand binding assays.\nAssay incubations were terminated by rapid filtration through PerkinElmer GF/C filtration plates pretreated with 0.3% PEI, under vacuum pressure using a 96-well Packard filtration apparatus, followed by multiple washes with ice-cold wash buffer (PBS containing 20 mM HEPES and 0.1 mM EDTA, pH 7.4). Plates were then dried at 45 °C for a minimum of 2 h. Finally, 25 μL of BetaScint scintillation cocktail was added to each well and plates were counted in a Packard TopCount scintillation counter. In each competition study, test compounds were dosed at 10 concentrations with triplicate determinations at each test concentration."}, "[2]": {"experiment": "Metabolite profile of 5c in the rat", "assay_type": "in vivo", "conditions": "in vivo following dosing of 5g", "excerpt": "A taurine-conjugated metabolite was subsequently identified in bile (M1, Figure 4), which was also observed in circulating plasma, although at much lower concentrations (∼5%) compared to parent. Further, two oxidized products, one of which was also a taurine-conjugate, were identified (M2 and M3) in plasma. […] It is known that taurine can be conjugated to bile acids and these conjugates may be hydrolyzed in the gut which allows for bile acid reabsorbtion.[19]"}}}
{"molecule": "O=C(O)COC[C@H]1CC[C@H](COC(=O)N(c2ccccc2)c2ccc(Cl)cc2)CC1", "note": "[5c, Sodium 2-(((1r,4r)-4-(((4-Chlorophenyl)(phenyl)carbamoyloxy)methyl)cyclohexyl)methoxy)acetate]", "values": [{"measurement": "Ki", "setting": "EP1", "value": 9600, "unit": "nM"}, {"measurement": "half-life", "setting": "Dog PK (iv and oral); beagle, plasma, oral, 0.2 mg/kg, read-out: elimination half-life in dog (converted)", "value": 10, "unit": "h"}, {"measurement": "AUC0–inf", "setting": "Dog PK (iv and oral); iv 0.2 mg/kg", "value": "1050 ± 300", "unit": "ng·h/mL"}, {"measurement": "Clobs", "setting": "Dog PK (iv and oral); iv 0.2 mg/kg", "value": "0.202 ± 0.057", "unit": "L h^–1 kg^–1"}, {"measurement": "T1/2", "setting": "Dog PK (iv and oral); iv 0.2 mg/kg", "value": "3.54 ± 0.42", "unit": "h"}, {"measurement": "AUC0–inf", "setting": "Dog PK (iv and oral); po 0.2 mg/kg", "value": "719 ± 290", "unit": "ng·h/mL"}, {"measurement": "Cmax", "setting": "Dog PK (iv and oral); po 0.2 mg/kg", "value": "327 ± 16", "unit": "ng/mL"}, {"measurement": "F", "setting": "Dog PK (iv and oral); po 0.2 mg/kg", "value": 68.4, "unit": "%"}, {"measurement": "T1/2", "setting": "Dog PK (iv and oral); po 0.2 mg/kg", "value": "9.79 ± 0.94", "unit": "h"}, {"measurement": "Tmax", "setting": "Dog PK (iv and oral); po 0.2 mg/kg", "value": "0.417 ± 0.144", "unit": "h"}, {"measurement": "AUC0–inf", "setting": "Dog PK (iv and oral); po 2 mg/kg", "value": "9750 ± 5270", "unit": "ng·h/mL"}, {"measurement": "Cmax", "setting": "Dog PK (iv and oral); po 2 mg/kg", "value": "3440 ± 900", "unit": "ng/mL"}, {"measurement": "F", "setting": "Dog PK (iv and oral); po 2 mg/kg", "value": 92.9, "unit": "%"}, {"measurement": "T1/2", "setting": "Dog PK (iv and oral); po 2 mg/kg", "value": "5.53 ± 1.48", "unit": "h"}, {"measurement": "Tmax", "setting": "Dog PK (iv and oral); po 2 mg/kg", "value": "0.833 ± 0.289", "unit": "h"}, {"measurement": "reduction in the apparent plasma half-life in BDC rats", "setting": "[1]; BDC versus normal rats", "value": 3, "unit": "fold"}, {"measurement": "concentrations in bile and urine compared to plasma", "setting": "[1]; rat", "value": "negligible"}, {"measurement": "half-life", "setting": "Monkey PK (iv and oral); cynomolgus monkey, plasma, oral, 0.1 mg/kg, read-out: elimination half-life in monkey (converted)", "value": 18, "unit": "h"}, {"measurement": "AUC0–inf", "setting": "Monkey PK (iv and oral); monkey, iv 0.1 mg/kg", "value": "145 ± 95", "unit": "ng·h/mL"}, {"measurement": "Clobs", "setting": "Monkey PK (iv and oral); monkey, iv 0.1 mg/kg", "value": "0.881 ± 0.579", "unit": "L h^–1 kg^–1"}, {"measurement": "T1/2", "setting": "Monkey PK (iv and oral); monkey, iv 0.1 mg/kg", "value": "24.2 ± 2.1", "unit": "h"}, {"measurement": "AUC0–inf", "setting": "Monkey PK (iv and oral); monkey, po 0.1 mg/kg", "value": "161 ± 116", "unit": "ng·h/mL"}, {"measurement": "Cmax", "setting": "Monkey PK (iv and oral); monkey, po 0.1 mg/kg", "value": "12.1 ± 3.6", "unit": "ng/mL"}, {"measurement": "F", "setting": "Monkey PK (iv and oral); monkey, po 0.1 mg/kg", "value": 98.7, "unit": "%"}, {"measurement": "T1/2", "setting": "Monkey PK (iv and oral); monkey, po 0.1 mg/kg", "value": "17.5 ± 3.4", "unit": "h"}, {"measurement": "Tmax", "setting": "Monkey PK (iv and oral); monkey, po 0.1 mg/kg", "value": "2.67 ± 2.89", "unit": "h"}, {"measurement": "AUC0–inf", "setting": "Monkey PK (iv and oral); monkey, po 0.5 mg/kg", "value": "2900 ± 1350", "unit": "ng·h/mL"}, {"measurement": "Cmax", "setting": "Monkey PK (iv and oral); monkey, po 0.5 mg/kg", "value": "92.8 ± 29.7", "unit": "ng/mL"}, {"measurement": "F", "setting": "Monkey PK (iv and oral); monkey, po 0.5 mg/kg", "value": ">100", "unit": "%"}, {"measurement": "T1/2", "setting": "Monkey PK (iv and oral); monkey, po 0.5 mg/kg", "value": "38.7 ± 21.3", "unit": "h"}, {"measurement": "Tmax", "setting": "Monkey PK (iv and oral); monkey, po 0.5 mg/kg", "value": "4.17 ± 3.18", "unit": "h"}]}
{"molecule": "O=C(O)COC[C@H]1CC[C@H](COC(=O)N(c2ccccc2)c2cccc(F)c2)CC1", "note": "[5g, 2-(((1r,4r)-4-(((3-Fluorophenyl)(phenyl)carbamoyloxy)methyl)cyclohexyl)methoxy)acetic Acid]", "values": [{"measurement": "Ki", "setting": "EP4", "value": 1200, "unit": "nM"}, {"measurement": "IC50", "setting": "human platelet", "value": 18, "unit": "nM"}, {"measurement": "Ki", "setting": "IP", "value": 7, "unit": "nM"}, {"measurement": "taurine conjugate metabolite in vivo", "setting": "[2]", "value": "no analogous conjugate was observed"}]}
